Test results as given in patent publication US9163018B2, “Method of treatment of age-related macular degeneration (AMD)” (Prana Biotechnology Limited, priority 2006, dated 2015).

Columns and labels:
[1] = molecular target: T1, Abeta:Zn (25:50 μM) Synthetic Aggregations (Homo sapiens, UniProt P05067); assay: Disaggregation of Abeta:Zn synthetic aggregates (ThT fluorescence); format: biochemical
T1 construct: PB Compound Mediated Dissolution of Aggregated Abeta 1-42; purchased Keck Laboratory, Yale University School of Medicine
How it was run: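 Abeta1-42 (25 μM) with ZnCl2 (50 μM) and ThT (50 μM) in PBS pH 6.6 was preaggregated 24 h at 37 degrees with rotation. Aggregates were then exposed to compound (final 1-50 μM, DMSO) for 2 h at 37 degrees. ThT fluorescence was read at ex 450/em 480 nm.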

[2] = system: metal ions in retinal drusen; assay: Post mortem retina screening, ZP1 zinc labeling of Bruch membrane; conditions: 15 hours incubation; TPEN 100 μM, PB-1033 100 and 250 μM; 10 μM ZP1
Protocol: Post Mortem Screening The BAS assay is adopted for post mortem retina. Using a trephine, 6 mm diameter regions of peripheral retina from frozen donor eyes are dissected. Following defrosting, the neuronal retina and the RPE cells are removed by gentle agitation in PBS buffer. Following removal of the RPE cells, strips of the Bruch membrane are cut from the eye. 4 samples are prepared: 1) Control […] Samples are then washed 3 times and the labeling visualized using a fluorescence and confocal microscope. A repeat of this procedure is performed with the exception that samples are incubated for a period of 15 hours before washing to determine differential metal binding over this longer period. The test results are in the form of fluorescence imaging from a confocal microscope of the 4 samples tested in this Example after 15 hours of sample incubation. […] Fluorescence microscopic photographs (which are in colour) are available upon request from the […].

[3] = system: primary cortical neuronal cultured cells; assay: Test compound cytotoxicity, MTS assay, primary cortical neuronal cultures; format: cell-based, mouse
How it was run: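 Primary cortical neurons were cultured five days in Neurobasal/B27, then exposed on day six to compounds (from 2.5 mM DMSO stocks) in medium minus antioxidants, in triplicate for 4 days at 37° C. Viability was measured by MTS, 2 h at 37° C, absorbance at 560 nm.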

[4] = system: dityrosine oligomerization; assay: CuTy: inhibition of dityrosine oligomerization; format: biochemical; conditions: referenced to in-house standard (set as 100% inhibition)

T1 sequence (P05067 672-713 limits assumed): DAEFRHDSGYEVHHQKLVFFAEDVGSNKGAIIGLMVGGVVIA

## CN(C)Cc1ccc2c(Cl)cc(Cl)c(O)c2n1.Cl [PB 1033]
[1]; 5 μM test compound
  Disaggregation % Aggregate reduction at 5 μM: 33.2%
[1]; Abeta:Zn 25:50 μM aggregates
  EC50: 18.6 µM
[2]
  ZP1 (zinc sensor) labeling of post mortem Bruch membrane: inhibited ZP1 labeling
[3]; 1 μM test compound
  Cytotox (% viable) Neuronal cells at 1 μM: 84%
[3]; 10 μM test compound
  Cytotox (% viable) Neuronal cells at 10 μM: 72%
[4]
  CuTy % inhibition of dityrosine oligomerization: 100%
